Test results reported in patent US9301952B2, “Diarylpyridine anti-viral compounds” (Kineta, Inc., priority 2010, dated 2016).
Like-named read-outs stand apart in the source and are kept apart here.

What was measured:
Influenza WSN strain [1] = assay: microbe, parasite or virus in culture; settings: Influenza A virus, A549, read-out: Influenza nucleoprotein (NP) ELISA (IC50)
[2] = tested on: Murine Encephalomyocarditis virus (EMCV); assay: EMCV antiviral assay (cell viability by MTS after infection); type: cell-based; settings: Huh7 cells, EMCV 250 pfu
HCV2a = assay: HCV focus-forming assay (FFA) / HCV IF antiviral assay; type: cell-based, Hepatitis C virus
Protocol: FIG. 1 is a graph of an HCV focus-forming assay. Huh7 cells were pre-treated with compound KIN400 for 24 hours and infected with HCV2a at an multiplicity of infection (MOI) of 0.5 for 48 hours. HCV protein was detected by immunofluorescent staining with viral-specific serum and foci were normalized to negative control cells that were not drug treated (equal to 1).
HCV IF antiviral assay. Huh7 cells are seeded on a 96 well plate at 5×10^3 cells per well and cells are allowed to attach and grow for 24 hours. Compounds that have been diluted to 10 uM in media and contain a final concentration of 0.5% DMSO are added to each well and grown another 24 hours. The compound media solution is removed from the plate and stored in a clean tissue culture dish. Cell monolayers are washed with PBS and HCV2a virus is added at the stated MOI. Virus is incubated for 2-4 hours and then removed, the monolayers are washed with PBS and the compound solutions are replaced into each well.
The cells are grown overnight and then cells are fixed and stained for HCV proteins. All buffers and reagents are used from the Cellomics staining kits described above. Primary serum PHS#72 is diluted 1:3,000 in wash buffer and incubated at room temperature 1 hour. […] The number of infected cells is counted and representative images are saved.

Huh7 cells = assay: MTS assay to determine cytotoxicity; type: cell-based, human
Protocol: (§1) MTS assay to determine cytotoxicity. Cultured human Huh7 cells are treated with increasing amounts of compound or equivalent amounts of DMSO diluted in media for 24 hours to see their effect on cell viability. The proportion of viable cells is calculated using a cell viability assay that measures conversion of a tetrazolium compound [[…]-5-(3-carboxymethoxyphenyl)-2-(4-sulfophenyl)-2H-tetrazolium, inner salt; MTS] to a colored formazan compound in live cells.
(§2) The conversion of MTS to formazan is detected in a 96-well microtiter plate reader, and the resulting optical densities can be plotted directly to estimate cell viability. […] Compounds were diluted to final concentrations of 0, 5, 10, 20, and 50 uM in media containing 0.5% DMSO. Negative control wells contain no compound and positive control for cytotoxicity is examined using an EMCV infection which causes 100% cytopathic effect. Each compound concentration and control is done in triplicate wells to generate error bars.

[3] = MTS assay to determine cytotoxicity; type: cell-based, human; settings: human; Huh7 cells, 24 hours
Protocol: as §1, §2

HCV RNA = assay: Decrease of HCV RNA; type: cell-based, Hepatitis C virus
Protocol: KIN400 compounds are tested for in vitro antiviral activity against HCV 2A and influenza A virus (A/WSN/33). Viral protein and RNA levels are assessed following drug treatment using the assays described above.

IRF-3 = assay: Activation of IRF-3; type: cell-based
Influenza WSN strain [4] = tested on: Influenza WSN strain

Structure (SMILES): N#Cc1c(-c2ccccc2)cc(-c2ccccc2)nc1SCC(=O)N1CCOCC1 [KIN400]
- IC50 (Influenza WSN strain [1]): 0.2 µM
- Cell viability post-infection ([2]; 5 μM): ~0.75
- Cell viability post-infection ([2]; 10 μM): ~0.95
- Cell viability post-infection ([2]; 20 μM): ~1.05
- IC50 (HCV2a; Hepatitis C virus, Huh-7, Huh7 cells): 5.1 µM
- IC50 (HCV2a; Huh7 cells): 5.1 µM
- CC50 (Huh7 cells): > 50 µM
- cytotoxicity (in words) (Huh7 cells): low cytotoxicity
- CC50 at 24 h [3]: > 50 µM
- Decrease HCV RNA (HCV RNA): Yes
- Decrease HCV RNA (HCV RNA; listed as KIN100): decrease in HCV RNA
- activation of IRF-3 (IRF-3): activation of IRF-3
- Therapeutic index (TI) (CC50/IC50) (Influenza WSN strain [4]): > 10
- Therapeutic index (TI) (CC50/IC50) (Influenza WSN strain [4]; listed as KIN100): 250
- antiviral activity against influenza virus (in words) (Influenza WSN strain [4]; influenza virus strain WSN): antiviral activity against influenza virus
